# Assay results: patent US9314468B2, “Chemokine receptor modulators” (Altiris Therapeutics, Inc., priority 2008, dated 2016)
# Biological target: CXCR4 (Homo sapiens (Human), UniProt P61073)
# Assay: Functional calcium mobilization assay (SDF-1α induced)
# Format: cell-based
# Settings: CCRF-CEM, read-out: % inhibition at 1 μM
# Protocol: Functional modulation of CXCR4 was determined by calcium mobilization assay using leukemic lymphoid CEM cells, which naturally express high levels of CXCR4. Generally, the assay is carried out as follows: Cells are grown in vitro to confluency. On the day of the assay, cells are removed from the incubator, culture medium removed and replaced with a calcium sensitive dye (Calcium3 assay kit; Molecular Devices, Sunnyvale, Calif.). The cells are allowed to dye load for 45-60 min at 37° C. in the cell culture incubator and then allowed to equilibrate to room temperature for no more than 15 min before assay.
# Compound plates were generated containing up to 3% dimethyl sulfoxide in media kept at room temperature. Test compounds were added to the cells at a 1:3 dilution, and calcium mobilization was measured using a Flex Station fluorescence imager (Molecular Devices). This first read was used to determine direct agonist activation of the CXCR4 receptor by the test compounds. […] Full dose response curves were generated daily for SDF-1a to calculate IC50 concentrations. The IC50 values are reported. In cases, where one was not determined, a percent inhibition at the 1 μM concentration was extrapolated.
# Functional calcium mobilization assay was conducted as described in Example 27.
# Chain of CXCR4 (P61073 whole entry): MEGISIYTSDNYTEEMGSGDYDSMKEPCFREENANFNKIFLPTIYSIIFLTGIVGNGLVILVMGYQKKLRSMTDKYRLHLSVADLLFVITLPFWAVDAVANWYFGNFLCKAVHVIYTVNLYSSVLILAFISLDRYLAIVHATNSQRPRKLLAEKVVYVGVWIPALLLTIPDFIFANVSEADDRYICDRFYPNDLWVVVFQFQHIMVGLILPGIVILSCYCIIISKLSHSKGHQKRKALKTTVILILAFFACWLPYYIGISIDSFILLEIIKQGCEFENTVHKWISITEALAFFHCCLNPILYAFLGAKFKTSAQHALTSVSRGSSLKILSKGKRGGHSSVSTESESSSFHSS
row,Structure (SMILES),inhibition at 1 µM [%]
1,CC(C)CN(CCCCN(Cc1nccc2c1[nH]c1ccccc12)[C@H]1CCCc2cccnc21)CC(C)C,23
2,NCc1ccc(CN(Cc2nccc3c4ccccc4n(CC(=O)N4CCOCC4)c23)[C@H]2CCCc3cccnc32)cc1,0
3,N[C@@H](CCCN(Cc1nccc2c3ccccc3n(CC(=O)N3CCOCC3)c12)[C@H]1CCCc2cccnc21)C(=O)O,0
4,CS(=O)(=O)NCCCCN(Cc1nccc2c1[nH]c1ccccc12)[C@H]1CCCc2cccnc21,0
5,c1ccc(CN(CCCCN(Cc2nccc3c2[nH]c2ccccc23)C2CCCc3cccnc32)Cc2ccccn2)nc1 (centres unmarked),27
6,CC(C)(C)OC(=O)N(CCCCN(Cc1nccc2c1[nH]c1ccccc12)[C@H]1CCCc2cccnc21)C(=O)OC(C)(C)C,19
7,O=C(CN(Cc1nccc2c1[nH]c1ccccc12)[C@H]1CCCc2cccnc21)NC1CCNCC1,0
8,NC1CCN(C(=O)CN(Cc2nccc3c2[nH]c2ccccc23)[C@H]2CCCc3cccnc32)CC1,0
9,NCCCN(Cc1nccc2c1[nH]c1ccccc12)C1CCCc2cccnc21 (centres unmarked),0
10,CS(=O)(=O)N1CCN(CCCN(Cc2nccc3c2[nH]c2ccccc23)C2CCCc3cccnc32)CC1 (centres unmarked),27

# Further lines, results first:
row,inhibition at 1 µM [%],Structure (SMILES)
1,0,NCCN(Cc1nccc2c1[nH]c1ccccc12)C1CCCc2cccnc21 (centres unmarked)
2,0,O=C(Cn1c2ccccc2c2ccnc(CN(C(=O)CCN3CCNCC3)[C@H]3CCCc4cccnc43)c21)N1CCOCC1
3,0,c1cnc(NCCCCN(Cc2nccc3c2[nH]c2ccccc23)[C@H]2CCCc3cccnc32)nc1

# Same assay, conditions: CEM cells, SDF-1α challenge at EC80-EC90; read-out: Ca Flux IC50
row,Structure (SMILES),IC50 [nM]
1,CS(=O)(=O)N1CCN(CCN(Cc2nccc3c2[nH]c2ccccc23)C2CCCc3cccnc32)CC1 (centres unmarked),10000
2,O=C1CN(CCCN(Cc2nccc3c4ccccc4n(CC(=O)N4CCOCC4)c23)[C@H]2CCCc3cccnc32)CCN1,8720
3,c1cnc2c(c1)CCC[C@@H]2N(CCCCNCC1CC1)Cc1nccc2c1[nH]c1ccccc12,451
4,NCCCCN(Cc1nccc2c3ccccc3n(Cc3cccnc3)c12)[C@H]1CCCc2cccnc21,481
5,Cn1c2ccccc2c2ccnc(CN(CCCCN)C3CCCc4cccnc43)c21 (centres unmarked),10
6,CC(C)(C)OC(=O)Cn1c2ccccc2c2cc(CN(CCCCN)[C@H]3CCCc4cccnc43)ncc21,949
7,Cc1cccnc1CN(CCCCN)Cc1nccc2c3ccccc3n(CC(=O)N3CCOCC3)c12,583
8,CCN(Cc1nccc2c3ccccc3n(CCCN)c12)[C@H]1CCCc2cccnc21,997
9,NC(=O)NCCCCN(Cc1nccc2c1[nH]c1ccccc12)[C@H]1CCCc2cccnc21,6670
10,NCCCCN(Cc1cc2c(cn1)[nH]c1ccccc12)C1CCCc2cccnc21 (centres unmarked),69

# Other lines, results leading:
row,IC50 [nM],Structure (SMILES)
1,176,c1ccc(Cn2c3ccccc3c3ccnc(CN(CCCN4CCNCC4)[C@H]4CCCc5cccnc54)c32)nc1
2,1,CC(C)(C)OC(=O)Cn1c2ccccc2c2ccnc(CN(CCCCN)[C@H]3CCCc4cccnc43)c21
3,26,O=C(Cn1c2ccccc2c2ccnc(CN(CCCN3CCNCC3)[C@H]3CCCc4cccnc43)c21)NC1CCOCC1
4,270,NCCCCN(Cc1nccc2c3ccccc3n(CC(=O)N3CCCCC3)c12)[C@H]1CCCc2cccnc21
5,4,NCCCCN(Cc1nccc2c3ccccc3n(CCN3CCOCC3)c12)[C@H]1CCCc2cccnc21
6,1640,CCN(Cc1nccc2c3ccccc3n(CCCN3C(=O)c4ccccc4C3=O)c12)[C@H]1CCCc2cccnc21
7,44,O=C1CNCCN1CCCn1c2ccccc2c2ccnc(CN(CCCN3CCNCC3)[C@H]3CCCc4cccnc43)c21
8,206,CN1CCN(CCCN(Cc2nccc3c2[nH]c2ccccc23)[C@H]2CCCc3cccnc32)CC1
9,8390,c1ccc(Cn2c3ccccc3c3ccnc(CN[C@H]4CCCc5cccnc54)c32)nc1
10,1050,CN(Cc1nccc2c3ccccc3n(CCCN)c12)[C@H]1CCCc2cccnc21
11,1,c1cnc2c(c1)CCC[C@@H]2N(CCCN1CCNCC1)Cc1nccc2c3ccccc3n(CCC3CCOCC3)c12
12,14,c1cnc2c(c1)CCC[C@@H]2N(CCCN1CCNCC1)Cc1nccc2c3ccccc3n(CC3CC3)c12
